This note sets out measurements from ChEMBL document CHEMBL3044873, “Aryl N, N-Dimethylcarbamates, Synergists for Organophosphorus Insecticides against Organophos-phorusresistant Rice Stem Borers” (J Pestic Sci, 1990).

Series [1] relates to fenitrothion-detoxification activity by hydrolysis. Briefly: Inhibition of fenitrothion-detoxification activities by hydrolysis in OP-resistant Chilo suppressalis Hata-f (rice stem borer) at 1x10'-5M (reference value: 0%). Type of series: organism-based. To be noted: probe fenitrothion.
The test system of series [2] is Chilo suppressalis. The series is described as follows: Potentiation of pirimiphos-methyl-induced insecticidal activity against OP-resistant Chilo suppressalis Hata-f (rice stem borer) assessed as synergistic ratio at 1:10 pirimiphos-methyl to compound ratio relative to pirimiphos-methyl alone. In kind it is functional.
Series [3] concerns fenitrothion-detoxification activity by hydrolysis. The series is described as follows: Inhibition of fenitrothion-detoxification activities by hydrolysis in OP-resistant Chilo suppressalis Hata-f (rice stem borer) at 1x10'-6M (reference value: 0%). In kind it is organism-based. The conditions noted are these: probe fenitrothion.
Series [4] relates to Chilo suppressalis. The series is described as follows: Potentiation of fenitrothion-induced insecticidal activity against OP-resistant Chilo suppressalis Hata-f (rice stem borer) assessed as synergistic ratio at 1:10 fenitrothion to compound ratio relative to fenitrothion alone. In kind it is functional.
In series [5] the test system is Chilo suppressalis. The series is described as follows: Inhibition of fenitrothion-detoxification activities by hydrolysis in OP-resistant Chilo suppressalis Hata-f (rice stem borer). In kind it is organism-based. The conditions noted are these: read-out: I50.
For series [6], the system named is fenitrothion-detoxification activity by binding protein. The series is described as follows: Inhibition of fenitrothion-detoxification activities by binding protein in OP-resistant Chilo suppressalis Hata-f (rice stem borer) at 1x10'-6M (reference value: 0%). In kind it is organism-based. The conditions noted are these: in vivo, probe fenitrothion.
The subject of series [7] is Chilo suppressalis. Briefly: Inhibition of fenitrothion-detoxification activities by binding protein in OP-resistant Chilo suppressalis Hata-f (rice stem borer). Type of series: organism-based. To be noted: read-out: I50.
Series [8] has as its system fenitrothion-detoxification activity by binding protein. Briefly: Inhibition of fenitrothion-detoxification activities by binding protein in OP-resistant Chilo suppressalis Hata-f (rice stem borer) at 1x10'-5M (reference value: 0%). Type of series: organism-based. The conditions noted are these: in vivo, probe fenitrothion.
The test system is the same in series [9]. Briefly: Inhibition of fenitrothion-detoxification activities by binding protein in OP-resistant Chilo suppressalis Hata-f (rice stem borer) at 1x10'-4M (reference value: 0%). In kind it is organism-based. The conditions noted are these: in vivo, probe fenitrothion.
For series [10], the system named is Chilo suppressalis. Briefly: Potentiation of pirimiphos-methyl-induced insecticidal activity against OP-resistant Chilo suppressalis Hata-f (rice stem borer) assessed as synergistic ratio at 1:1 pirimiphos-methyl to compound ratio relative to pirimiphos-methyl alone. Type of series: functional.
Series [11] has as its system Chilo suppressalis. Briefly: Potentiation of pirimiphos-methyl-induced insecticidal activity against OP-resistant Chilo suppressalis Hata-f (rice stem borer) assessed as synergistic ratio at 1:5 pirimiphos-methyl to compound ratio relative to pirimiphos-methyl alone. Type of series: functional.
For series [12], the system named is fenitrothion-detoxification activity by binding protein. The series is described as follows: Inhibition of fenitrothion-detoxification activities by binding protein in OP-resistant Chilo suppressalis Hata-f (rice stem borer) at 1x10'-7M (reference value: 0%). Type of series: organism-based. The conditions noted are these: in vivo, probe fenitrothion.
The test system of series [13] is fenitrothion-detoxification activity by hydrolysis. The series is described as follows: Inhibition of fenitrothion-detoxification activities by hydrolysis in OP-resistant Chilo suppressalis Hata-f (rice stem borer) at 1x10'-4M (reference value: 0%). In kind it is organism-based. The conditions noted are these: probe fenitrothion.
For series [14] the test system is unchanged. The series is described as follows: Inhibition of fenitrothion-detoxification activities by hydrolysis in OP-resistant Chilo suppressalis Hata-f (rice stem borer) at 1x10'-7M (reference value: 0%). Type of series: organism-based. To be noted: probe fenitrothion.
Series [15] concerns Chilo suppressalis. The series is described as follows: Potentiation of fenitrothion-induced insecticidal activity against OP-susceptible Chilo suppressalis (rice stem borer) S strain assessed as synergistic ratio at 1:10 fenitrothion to compound ratio relative to fenitrothion alone. Type of series: functional.
The test system of series [16] is Chilo suppressalis. Briefly: Insecticidal activity against OP-resistance Chilo suppressalis Hata-f (rice stem borer) assessed as mortality measured after 24 hr. Type of series: functional.
In series [17] the test system is Chilo suppressalis. The series is described as follows: Insecticidal activity against OP-susceptible Chilo suppressalis S (rice stem borer) strain assessed as mortality measured after 24 hr. In kind it is functional.
Series [18] deals with Chilo suppressalis. The series is described as follows: Resistance ratio, LC50 for OP-resistance Chilo suppressalis Hata-f (rice stem borer) to OP-susceptible Chilo suppressalis S (rice stem borer) strain. In kind it is functional.

In general, inhibition refers to the drop in the measured response relative to a control, in per cent. High values mean a response far below the control, low ones a response near the control. For `Cc1cc(OC(=O)N(C)C)nc(N(C)C)n1`, the inhibition at 10 µM was found to be 66.7% in series [1] and 75% in [8]. In addition, the “fold change (FC)” value in the series on Chilo suppressalis [2] was found to be 1061; in the series with Chilo suppressalis [4], 38; in the series on Chilo suppressalis [10] it was 234; in the series with Chilo suppressalis [11], 751; with Chilo suppressalis [15], 1. In addition, the inhibition at 1 µM in series [3] amounted to 22.2%; in series [6], 19.3%. For the same compound, the figures for the IC50 in the series with Chilo suppressalis [5] and with Chilo suppressalis [7] were 4.5 µM and 3.3 µM, respectively. The inhibition at 100 µM in series [9] came to 78.4%; in series [13], 78%. Also, the inhibition at 0.1 µM in [12] and in series [14] was 0% throughout.

Take `CCN(CC)c1nc(C)cc(OC(=O)N(C)C)n1`: the “fold change (FC)” value in the series on Chilo suppressalis [2] stood at 451; with Chilo suppressalis [4], 20; in the series on Chilo suppressalis [10], 86; in the series with Chilo suppressalis [11], 440; in the series on Chilo suppressalis [15] it was 1.

As to `Cc1cc(OC(=O)N(C)C)no1`, the “fold change (FC)” value with Chilo suppressalis [2] is recorded as 582; with Chilo suppressalis [4], 16; in the series on Chilo suppressalis [10] it was 90; in the series with Chilo suppressalis [11] it was 438.

As to `CN(C)C(=O)Oc1cc(-c2ccccc2)on1`, the “fold change (FC)” value is reported as 419 with Chilo suppressalis [2]; 23 with Chilo suppressalis [4]; 67 in the series on Chilo suppressalis [10]; 328 in the series on Chilo suppressalis [11]; 0.9 in the series with Chilo suppressalis [15].

For `Cc1cc(OC(=O)N(C)C)ccc1[N+](=O)[O-]`, the “fold change (FC)” value was found to be 207 in the series on Chilo suppressalis [2]; 23 in the series on Chilo suppressalis [4]; 67 in the series with Chilo suppressalis [10]; 196 in the series with Chilo suppressalis [11]; 0.7 in the series with Chilo suppressalis [15].

For `CSc1ccc(OC(=O)N(C)C)cc1C`, the “fold change (FC)” value is given as 231 in the series with Chilo suppressalis [2]; 22 in the series on Chilo suppressalis [4]; 72 in the series with Chilo suppressalis [10]; 188 with Chilo suppressalis [11]; 0.9 in the series with Chilo suppressalis [15].

Regarding `CNc1nc(C)cc(OC(=O)N(C)C)n1`, the “fold change (FC)” value is reported as 818 in the series on Chilo suppressalis [2], 21 in the series on Chilo suppressalis [4], 129 in the series on Chilo suppressalis [10] and 451 in the series with Chilo suppressalis [11].

Broadly, the LD50 is the dose expected to kill half of the subjects tested. For the compound `COP(=S)(OC)Oc1ccc([N+](=O)[O-])c(C)c1` [FENITROTHION], the LD50 turned out to be 69 mg/kg with Chilo suppressalis [16] and 1.8 mg/kg with Chilo suppressalis [17]. The RatioLC50 in the series with Chilo suppressalis [18] came to 38.

Regarding `COP(=O)(OC)Oc1ccc([N+](=O)[O-])c(C)c1` [FENITROXON], the LD50 in the series with Chilo suppressalis [16] is 27 mg/kg; with Chilo suppressalis [17], 1.2 mg/kg. Further, the RatioLC50 with Chilo suppressalis [18] worked out at 23.

In the case of `CCN(CC)c1nc(C)cc(OP(=S)(OC)OC)n1` [PIRIMIPHOS METHYL], the 50% lethal dose (LD50) was determined as 1800 mg/kg in the series with Chilo suppressalis [16] and 1.5 mg/kg with Chilo suppressalis [17]. In the series on Chilo suppressalis [18], the RatioLC50 is reported as 1202.
